Literature values in US10568966B2, “Formulation for topical wound treatment” (AHMET KILIC, priority 2014, dated 2020).

Experiments:
[1] = CLP-Regulation (EC) No 1272/2008

Compound | LD50 Acute oral (Rat) [mg/kg] | GHS Classification [1]
C=CCCCCCCCCC(=O)NCCC[N+](C)(C)CC(=O)[O-] [Rewoteric ® AM B U 185, Undecylenamidopropyl Betaine] | >2.000 | –
Cocamidopropyl Betaine [CRODATERIC ™ CAB 30-LQ-(RB)] | – | Eye Irrit. 2; H319
Lauramidopropyl betaine [CRODATERIC ™ CAB 30-LQ-(TH)] | >4.900 | –
